Test results taken from ChEMBL document CHEMBL1201862, “PubChem BioAssay data set” (2004).
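How tested: cells in 96-well plates exposed to compound for 48 hours at five concentrations. GI50: concentration for 50% inhibition of growth.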 The source made the active and inactive calls. Rule as the data show it: active = GI50 up to about 1.1 µM and inactive = higher.

Tests used:
Test in all cases: growth of human tumour cells (NCI), 48 h
786-0 = system: 786-0
A498 = system: A498
A549 = system: A549
ACHN = system: ACHN
CAKI-1 = system: CAKI-1
CCRF-CEM = system: CCRF-CEM
COLO 205 = system: COLO 205
DLD-1 = system: DLD-1
DMS-114 = system: DMS-114
HCC 2998 = system: HCC 2998
HCT-116 = system: HCT-116
HCT-15 = system: HCT-15
HL-60 = system: HL-60
HOP-18 = system: HOP-18
HOP-62 = system: HOP-62
HOP-92 = system: HOP-92
HT-29 = system: HT-29
IGROV-1 = system: IGROV-1
K562 = system: K562
KM-20L2 = system: KM-20L2
KM12 = system: KM12
LOX IMVI = system: LOX IMVI
LXFL 529 = system: LXFL 529
M14 = system: M14
MOLT-4 = system: MOLT-4
Malme-3M = system: Malme-3M
NCI-H23 = system: NCI-H23
NCI-H460 = system: NCI-H460
OVCAR-5 = system: OVCAR-5
OVCAR-8 = system: OVCAR-8
SF-268 = system: SF-268
SF-295 = system: SF-295
SF-539 = system: SF-539
SK-MEL-28 = system: SK-MEL-28
SK-MEL-2 = system: SK-MEL-2
SK-OV-3 = system: SK-OV-3
SN12C = system: SN12C
SNB-19 = system: SNB-19
SNB-75 = system: SNB-75
SNB-78 = system: SNB-78
SR = system: SR
SW-620 = system: SW-620
TK-10 = system: TK-10
U-251 = system: U-251
UACC-257 = system: UACC-257
UACC-62 = system: UACC-62
UO-31 = system: UO-31
XF498 = system: XF498

## C(CCC[Te][Te]CCCCCCOC1CCCCO1)CCOC1CCCCO1 (stereo not drawn)
786-0
  GI50: 15.5 µM (inactive)
A498
  GI50: 17.6 µM (inactive)
A549
  GI50: 14.5 µM (inactive)
ACHN
  GI50: 10.6 µM (inactive)
CAKI-1
  GI50: 12.6 µM (inactive)
CCRF-CEM
  GI50: 11 µM (inactive)
COLO 205
  GI50: 15.7 µM (inactive)
DLD-1
  GI50: 15.7 µM (inactive)
DMS-114
  GI50: 3.89 µM (inactive)
HCC 2998
  GI50: 14.1 µM (inactive)
HCT-116
  GI50: 19.8 µM (inactive)
HCT-15
  GI50: 19.2 µM
HL-60
  GI50: 8.69 µM (inactive)
HOP-18
  GI50: 19.3 µM (inactive)
HOP-62
  GI50: 15.1 µM (inactive)
HOP-92
  GI50: 12.2 µM (inactive)
HT-29
  GI50: 12 µM (inactive)
IGROV-1
  GI50: 16.5 µM (inactive)
K562
  GI50: 5.86 µM (inactive)
KM-20L2
  GI50: 14.7 µM (inactive)
KM12
  GI50: 13.7 µM (inactive)
LOX IMVI
  GI50: 13.6 µM (inactive)
LXFL 529
  GI50: 9.02 µM (inactive)
M14
  GI50: 21.1 µM (inactive)
MOLT-4
  GI50: 9.82 µM (inactive)
Malme-3M
  GI50: 6.44 µM (inactive)
NCI-H23
  GI50: 12.4 µM (inactive)
NCI-H460
  GI50: 14.8 µM (inactive)
OVCAR-5
  GI50: 14 µM (inactive)
OVCAR-8
  GI50: 16 µM (inactive)
SF-268
  GI50: 16.6 µM (inactive)
SF-295
  GI50: 15.9 µM (inactive)
SF-539
  GI50: 17.3 µM (inactive)
SK-MEL-28
  GI50: 14.1 µM (inactive)
SK-MEL-2
  GI50: 13.3 µM (inactive)
SK-OV-3
  GI50: 39.6 µM (inactive)
SN12C
  GI50: 13.7 µM (inactive)
SNB-19
  GI50: 14.4 µM (inactive)
SNB-75
  GI50: 17.3 µM (inactive)
SNB-78
  GI50: 17.1 µM (inactive)
SR
  GI50: 7.64 µM (inactive)
SW-620
  GI50: 18.2 µM (inactive)
TK-10
  GI50: 30.1 µM (inactive)
U-251
  GI50: 11.8 µM (inactive)
UACC-257
  GI50: 6.81 µM (inactive)
UACC-62
  GI50: 10.6 µM (inactive)
UO-31
  GI50: 19.8 µM (inactive)
XF498
  GI50: 10.2 µM (inactive)
